Key:
[1] = system: cTnT^R141W transgenic dilated cardiomyopathy mice model; assay: Left ventricular ultrastructure, electron microscopy; assay type: in vivo; conditions: long-term administration
Source text: Effects on the left ventricular ultrastructure of the mice model with dilated cardiomyopathy after a long-term administration of ginsenoside Rb1 (electron microscopy)
Fresh myocardial tissues are fixed with 2.5% glutaraldehyde solution, then post-fixed by 1% osmic acid, embedded by Epon812 after the acetone gradient dehydration, wherein the embedded number is five Epon812 per case, ultra-thin sections are double stained by uranyl acetate and lead citrate, and observing by JEM1230 type projection electron microscope. The apparatuses are JEM1230 type projection electron microscope (Japanese Electronics Company), LEICA UCT type microtome (Germany Leica Company).

[2] = system: cTnT^R141W transgenic dilated cardiomyopathy mice model; assay: M-mode echocardiography, cardiac function and morphous, once a month; assay type: in vivo; design: CO (Cardiac Output) / LVAW; d (left ventricular anterior wall thickness, end of diastole) / LV Mass (AW) (weight of the left ventricular) / Diameter; d (inner diameter of the left ventricular, end of diastole) / Volume; d (volume of the left ventricular, end of diastole) / SV (Stroke Volume): unit not given here; conditions: 75 mg/kg in drinking water
Method: The positive mice at 1.5 months old are distributed by weight and cardiac function uniformly into the model group and the ginsenoside Rb1 administration group according to the echocardiography result, and each group comprises twelve mice. Ginsenoside Rb1, 75 mg/kg (State Yao zhun Zi, Yun Nan Tean Na Pharmaceutical Co., Ltd) is put into animal drinking water, and continuously administered for seven months.
Echocardiography detection is performed once a month. Mice were anesthetized with tribromoethanol, scanned by small animal ultrasonic apparatus (Vevo 770 small animal ultrasonic detection system, Canada), with 30 MHz probe, M-mode echocardiography were analyzed: Body weight (BW), LVPW, d (the thickness of the left ventricular posterior wall at the end of the diastole), LVPW, s (the thickness of the left ventricular posterior wall at the end of the systole), LVAW, d (the thickness of the left ventricular anterior wall at the end of the diastole), LVAW, s (the thickness of the left ventricular anterior wall at the end of the systole), LV Mass (the weight of the left ventricular), Diameter, s (the inner diameter of the left ventricular at the end of the systole), Diameter, d (the inner diameter of the left ventricular at the end of the diastole), Volume, s (the volume of the left ventricular at the end of the systole), Volume, d (the volume of the left ventricular at the end of the diastole), SV (Stroke Volume), EF (Ejection Fraction), FS (Fractional Shortening) and CO (Cardiac Output).

## CC(C)=CCC[C@](C)(O[C@@H]1O[C@H](CO[C@@H]2O[C@H](CO)[C@@H](O)[C@H](O)[C@H]2O)[C@@H](O)[C@H](O)[C@H]1O)[C@H]1CC[C@]2(C)[C@@H]1[C@H](O)C[C@@H]1[C@@]3(C)CC[C@H](O[C@@H]4O[C@H](CO)[C@@H](O)[C@H](O)[C@H]4O[C@@H]4O[C@H](CO)[C@@H](O)[C@H](O)[C@H]4O)C(C)(C)[C@@H]3CC[C@]12C [Rb1, ginsenoside Rb1]
[1]
  intercalated disc structure: clear
  mitochondrial structures: most mitochondrial structures are normal
  myocytes structure: clear structures
  sarcoplasmic reticulum: slightly dilated
[2]; 0 month of administration
  CO (Cardiac Output): 19.59 ± 2.99
  Diameter; d (inner diameter of the left ventricular, end of diastole): 4.02 ± 0.32
  Diameter; s (inner diameter of the left ventricular, end of systole): 2.84 ± 0.41
  EF (Ejection Fraction): 57.05 ± 7.87
  FS (Fractional Shortening): 29.77 ± 5.07
  LV Mass (AW) (weight of the left ventricular): 92.06 ± 17.12
  LVAW; d (left ventricular anterior wall thickness, end of diastole): 0.67 ± 0.06
  LVAW; s (left ventricular anterior wall thickness, end of systole): 0.99 ± 0.12
  LVPW; d (left ventricular posterior wall thickness, end of diastole): 0.67 ± 0.07
  LVPW; s (left ventricular posterior wall thickness, end of systole): 0.85 ± 0.06
  SV (Stroke Volume): 40.00 ± 4.42
  Volume; d (volume of the left ventricular, end of diastole): 71.50 ± 13.77
  Volume; s (volume of the left ventricular, end of systole): 31.51 ± 11.53
[2]; 1 month of administration
  CO (Cardiac Output): 22.14 ± 2.64
  Diameter; d (inner diameter of the left ventricular, end of diastole): 4.33 ± 0.38
  Diameter; s (inner diameter of the left ventricular, end of systole): 3.01 ± 0.46
  EF (Ejection Fraction): 58.32 ± 7.31
  FS (Fractional Shortening): 30.78 ± 4.73
  LV Mass (AW) (weight of the left ventricular): 120.38 ± 13.83
  LVAW; d (left ventricular anterior wall thickness, end of diastole): 0.84 ± 0.12
  LVAW; s (left ventricular anterior wall thickness, end of systole): 1.21 ± 0.13
  LVPW; d (left ventricular posterior wall thickness, end of diastole): 0.67 ± 0.06
  LVPW; s (left ventricular posterior wall thickness, end of systole): 0.95 ± 0.11
  SV (Stroke Volume): 48.69 ± 5.08
  Volume; d (volume of the left ventricular, end of diastole): 85.37 ± 17.55
  Volume; s (volume of the left ventricular, end of systole): 36.68 ± 13.77
[2]; 2 month of administration
  CO (Cardiac Output): 21.89 ± 1.78
  Diameter; d (inner diameter of the left ventricular, end of diastole): 4.31 ± 0.27
  Diameter; s (inner diameter of the left ventricular, end of systole): 3.15 ± 0.39
  EF (Ejection Fraction): 52.93 ± 7.59
  FS (Fractional Shortening): 27.23 ± 5.02
  LV Mass (AW) (weight of the left ventricular): 111.52 ± 7.92
  LVAW; d (left ventricular anterior wall thickness, end of diastole): 0.78 ± 0.05
  LVAW; s (left ventricular anterior wall thickness, end of systole): 1.13 ± 0.14
  LVPW; d (left ventricular posterior wall thickness, end of diastole): 0.69 ± 0.08
  LVPW; s (left ventricular posterior wall thickness, end of systole): 0.88 ± 0.12
  SV (Stroke Volume): 43.68 ± 2.20
  Volume; d (volume of the left ventricular, end of diastole): 83.96 ± 12.12
  Volume; s (volume of the left ventricular, end of systole): 40.29 ± 11.15
[2]; 3 month of administration
  CO (Cardiac Output): 22.72 ± 3.18
  Diameter; d (inner diameter of the left ventricular, end of diastole): 4.61 ± 0.35
  Diameter; s (inner diameter of the left ventricular, end of systole): 3.47 ± 0.48
  EF (Ejection Fraction): 48.85 ± 9.39
  FS (Fractional Shortening): 24.88 ± 5.88
  LV Mass (AW) (weight of the left ventricular): 124.88 ± 20.30
  LVAW; d (left ventricular anterior wall thickness, end of diastole): 0.75 ± 0.08
  LVAW; s (left ventricular anterior wall thickness, end of systole): 0.98 ± 0.09
  LVPW; d (left ventricular posterior wall thickness, end of diastole): 0.71 ± 0.06
  LVPW; s (left ventricular posterior wall thickness, end of systole): 0.88 ± 0.11
  SV (Stroke Volume): 46.95 ± 6.12
  Volume; d (volume of the left ventricular, end of diastole): 98.37 ± 16.57

— patent US20110039793A1, “Application of ginsenoside Rb1 in preparing medicaments for treating dilated cardiomyopathy” (priority 2008, published 2011)
